# No end group written: not given here.
# Target: Ca2+/CaM (Homo sapiens, UniProt P0DP23)
# Format: binding
"KD from titration to 15N-labeled Ca2+/CaM (result in words) (nanodisc free solution, same conditions as the SFWT peptide)",Kd [µM],Substance
did not reach saturation,–,HFGKpTGSSGPLQ [pSFWT]
–,0.27,HAGKTGSSGPLQ [SFFA]
–,750,HFGKTGAASDQR [LFRA]
